Experiment [1] deals with T1, BRD4 BD2 (Homo sapiens, UniProt O60885, Y97A).
T1 construct: BRD4 (1-477) (Y97A) and (Y390A); made in house; host or cells: E. coli (pET15b vector)
Nature of the experiment: BRD4 BD2 TR-FRET competition assay. It counts as binding. The following applies: TR-FRET competition with Reference Compound X; read-out: pIC50 in the BRD4 BD2 assay (converted). The procedure: (§1) Bromodomain binding was assessed utilising a time resolved fluorescent resonance energy transfer (TR-FRET) competition assay. To enable this approach a known, high affinity, pan-BET interacting small molecule was labelled with Alexa Fluor® 647, which is a far-red-fluorescent dye (Reference Compound X). Reference Compound X acts as a reporter of bromodomain binding and is the acceptor fluorophore component of the TR-FRET pair. Europium chelate, conjugated to an anti-6*His antibody, was utilised as the donor fluorophore in the TR-FRET pair. The anti-6*His antibody binds selectively to a six Histidine purification epitope added to the amino-terminus of each of the BET tandem bromodomain protein constructs used in this study. A TR-FRET signal is generated when the donor and acceptor fluorophores are in close proximity, between 20-80 Å, which is enabled in this assay by binding of Reference Compound X to the bromodomain protein.
(§2) In order to generate a TR-FRET signal, donor fluorophore is excited by a laser at λ337 nm, which subsequently leads to emission at λ618 nm. If the acceptor fluorophore is in close proximity then energy transfer can occur, which leads to emission of Alexa Fluor® 647 at λ665 nm. In the presence of competitor compound, Reference Compound X can be displaced from binding to the bromodomain. If displacement occurs, the acceptor fluorophore is no longer in proximity to the donor fluorophore, which prevents fluorescent energy transfer and, subsequently, a loss of Alexa Fluor® 647 emission at λ665 nm.
(§3) The competition of the compounds of formula (I) with Reference Compound X for binding to the BET family (BRD2, BRD3, BRD4 and BRDT) was assessed using protein truncates spanning both bromodomain 1 (BD1) and bromodomain 2 (BD2). In order to monitor differential binding to either BD1 or BD2, single residue mutations of key tyrosines to alanine were made in the acetyl lysine binding pockets. To validate this approach, a double residue mutant tandem domain protein was produced for each of the BET family members. Utilising a Fluorescence Polarisation approach, binding affinities for each of the single and double mutants for Reference Compound X were determined. […] The affinities of the single mutated bromdomain tandem proteins for Reference Compound X were equi-potent with the corresponding non-mutated BET protein. […] In the TR-FRET competition assay, Reference Compound X is used at a concentration that is equivalent to the Kd for the non-mutated bromodomain, which ensures that no binding at the mutated bromodomain is detected.
(§4) Recombinant Human Bromodomains [(BRD2 (1-473) (Y113A) and (Y386A), BRD3 (1-435) (Y73A) and (Y348A) BRD4 (1-477) (Y97A) and (Y390A) and BRDT (1-397) (Y66A) and (Y309A)] were expressed in E. coli cells (in pET15b vector for BRD2/3/4 and in pET28a vector for BRDT) with a 6-His tag at the N-terminal. The His-tagged Bromodomain pellet was resuspended in 50 mM HEPES (pH 7.5), 300 mM NaCl, 10 mM imidazole & 1 μL/mL protease inhibitor cocktail and extracted from the E. coli cells using sonication and purified using a nickel sepharose high performance column, the proteins were washed and then eluted with a linear gradient of 0-500 mM imidazole with buffer 50 mM HEPES (pH 7.5), 150 mM NaCl, 500 mM imidazole, over 20 column volumes. Final purification was completed by Superdex 200 prep grade size exclusion column. Purified protein was stored at −80° C. in 20 mM HEPES pH 7.5 and 100 mM NaCl. Protein identity was confirmed by peptide mass fingerprinting and predicted molecular weight confirmed by mass spectrometry.
All assay components were dissolved in an assay buffer composing of 50 mM HEPES pH 7.4, 50 mM NaCl, 5% Glycerol, 1 mM DTT and 1 mM CHAPS. Reference Compound X was diluted, in assay buffer containing 20 nM single mutant, tandem bromodomain protein, to a concentration equivalent to 2*Kd for this bromodomain. […]

In experiment [2] the test system is BRD4 BD1 and BRD4 BD2. The experiment is described as follows: BRD4 BD1 and BRD4 BD2 TR-FRET assays (selectivity for BRD4 BD2 over BRD4 BD1). The following applies: for selectivity for BRD4 BD2 over BRD4 BD1: BRD4 BD2 pIC50 − BRD4 BD1 pIC50, in at least one of the TR-FRET assays. It counts as binding, Human. As to the method:
as §1, §2, §3
as §4, with “Protein identity was confirmed by peptide mass fingerprinting and predicted molecular weight confirmed by mass spectrometry.” left out
Background: TR-FRET usually uses a lanthanide donor and a delayed reading to cut background.

Experiment [3] deals with BET family (BRD2, BRD3, BRD4 and BRDT) tandem bromodomain proteins. The experiment is described as follows: Fluorescence Polarisation binding of Reference Compound X to single and double mutant tandem BET proteins. Set-up: species or system Human. The following applies: single residue (Tyr to Ala) mutants. As to the method: as §3, with “detected. […]” for “detected.”
A general note: In fluorescence polarisation assays a small probe gives low polarisation when free and higher when bound to something large.

SMILES strings stand for the structures.

`CNC(=O)c1cc(C(=O)NCC(C)O)cc(Cc2ccccc2)n1` (racemic) [Example 61, (+/−)-6-Benzyl-N^4-(2-hydroxypropyl)-N^2-methylpyridine-2,4-dicarboxamide]: in experiment [1], the IC50 is 1000 to 10000 nM.

For `CNC(=O)c1cc(C(=O)Nc2cn[nH]c2)cc(C(OC)c2ccccc2)n1` (single isomer, unassigned) [Example 55, (S*)-6-(Methoxy(phenyl)methyl)-N^2-methyl-N^4-(1H-pyrazol-4-yl)pyridine-2,4-dicarboxamide], the “selectivity for BRD4 BD2 over BRD4 BD1” value in experiment [2] stood at 2.7 log unit. Besides, the IC50 in experiment [1] was 20 nM.

For `CNC(=O)c1cc(C(=O)Nc2cnn(C)c2)cc(Cc2ccccc2)n1` [Example 11, 6-Benzyl-N^2-methyl-N^4-(1-methyl-1H-pyrazol-4-yl)pyridine-2,4-dicarboxamide], in experiment [2], the “selectivity for BRD4 BD2 over BRD4 BD1” value worked out at 2.7 log unit. Further, in experiment [1], the IC50 was 15.8 nM.

As for `CNC(=O)c1cc(C(=O)Nc2cn[nH]c2)cc(Cc2ccccc2)n1` [Example 12, 6-Benzyl-N^2-methyl-N^4-(1H-pyrazol-4-yl)pyridine-2,4-dicarboxamide], in experiment [2], the “selectivity for BRD4 BD2 over BRD4 BD1” value stood at 2.7 log unit. Further, the IC50 in experiment [1] was 20 nM.

With `CNC(=O)c1cc(C(=O)Nc2cn[nH]c2)cc([C@@H](C)c2ccccc2)n1` [Example 16, (S)-N^2-Methyl-6-(1-phenylethyl)-N^4-(1H-pyrazol-4-yl)pyridine-2,4-dicarboxamide], in experiment [2], the “selectivity for BRD4 BD2 over BRD4 BD1” value was 3.0 log unit. For the same compound, the “fold selective for BRD4 BD2 over BRD4 BD1” value in experiment [2] (from the pIC50 difference) stood at 1000 fold. In addition, the IC50 in experiment [1] was 10 nM.

In the case of `CNC(=O)c1cc(C(=O)NCCOC)cc(Cc2cccc(OC)c2)n1` [Example 59, 6-(3-Methoxybenzyl)-N^4-(2-methoxyethyl)-N^2-methylpyridine-2,4-dicarboxamide], the IC50 in experiment [1] is 1000 to 10000 nM.

On to `CNC(=O)c1cc(C(=O)NC(C)(C)C)cc(Cc2ccccc2)n1` [Example 66, 6-Benzyl-N^4-(tert-butyl)-N^2-methylpyridine-2,4-dicarboxamide], for which, in experiment [1], the IC50 was 1000 to 10000 nM.

With `CNC(=O)c1cc(C(=O)Nc2nc(C)no2)cc([C@@H](C)c2ccccc2)n1` [Example 74, (S)-N^2-Methyl-N^4-(3-methyl-1,2,4-oxadiazol-5-yl)-6-(1-phenylethyl)pyridine-2,4-dicarboxamide], in experiment [1], the IC50 is 1000 to 10000 nM.

Regarding `CNC(=O)c1cc(C(=O)Nc2nnc(C)o2)cc([C@@H](C)c2ccccc2)n1` [Example 75, (S)-N^2-Methyl-N^4-(5-methyl-1,3,4-oxadiazol-2-yl)-6-(1-phenylethyl)pyridine-2,4-dicarboxamide], the IC50 in experiment [1] was 1000 to 10000 nM.

`CNC(=O)c1cc(C(=O)Nc2nncn2C)cc([C@@H](C)c2ccccc2)n1` [Example 76, (S)-N^2-Methyl-N^4-(4-methyl-4H-1,2,4-triazol-3-yl)-6-(1-phenylethyl)pyridine-2,4-dicarboxamide]: the IC50 in experiment [1] was 1000 to 10000 nM.

For the compound `COc1ccc2c(c1)C(c1ccc(Cl)cc1)=N[C@@H](CC(=O)NCCCCCNC(=O)CCCCCC1(C)/C(=C/C=C/C=C/C3=[N+](CCCCS(=O)(=O)O)c4ccc(S(=O)(=O)O)cc4C3(C)C)N(CCCCS(=O)(=O)[O-])c3ccc(S(=O)(=O)O)cc31)c1nnc(C)n1-2` (stereo partly shown) [Reference Compound X], the “affinity of single mutated bromodomain tandem proteins compared with corresponding non-mutated BET protein” value in experiment [3] was “equi-potent”.

The record behind these values is US10849897B2, “Pyridyl derivatives as bromodomain inhibitors” (GLAXOSMITHKLINE INTELLECTUAL PROPERTY (NO.2) LIMITED, priority 2017, dated 2020).
